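Five concentrations, 48 hours, 96-well plates. GI50 marks 50% less growth. At the TGI there is no net growth.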 *1 amine or outer side, *2 acyl side, *3 side chain or, on linkers, in order; H or OH if unused. Where a SMILES comes first, the peptide text is derived from it. Bridges are numbered along the chain shown (N, C = ends). Roman numbers before positions name the chains, in order. [ ]: non-standard residue; d: D form. Actinocin(9to1) = Cc1c2oc3c(C)ccc(C(=O)[*:1])c3nc-2c(C(=O)[*:2])c(N)c1=O; NMeV = CN[CH](C(=O)O)C(C)C; Sar = CNCC(=O)O
Experiments:
Assay in all cases: inhibition of tumour cell growth, NCI panel, 48 h
[1] = system: ACHN renal
[2] = system: SK-OV-3 ovarian
[3] = system: MALME-3M melanoma
[4] = system: HCC-2998 colon
[5] = system: NCI-H226 lung
[6] = system: HCT-116 colon
[7] = system: A549 NSCLC
[8] = system: BT-549 breast
[9] = system: A498 renal
[10] = system: SK-MEL-2 melanoma

Structure (SMILES)	TGI [1] [µM]	TGI [2] [µM]	TGI [3] [µM]	TGI [4] [µM]	TGI [5] [µM]	TGI [6] [µM]	TGI [7] [µM]	GI50 [8] [µM]	TGI [8] [µM]	GI50 [2] [µM]	GI50 [9] [µM]	TGI [9] [µM]	GI50 [5] [µM]	GI50 [6] [µM]	GI50 [7] [µM]	TGI [10] [µM]
CCCCN(CCCC)C1=Nc2ccccc2-n2c(nnc2C(=O)OCC)C1	> 100	> 100	82.1	> 100	> 100	> 100	> 100	–	–	–	–	–	–	–	–	–
C=C1C(=O)O[C@H]2[C@H]1CC/C(COC(=O)/C=C/C(=O)OC/C1=C/CC[C@@]3(C)O[C@H]3[C@H]3OC(=O)C(=C)[C@@H]3CC1)=C\CC[C@@]1(C)O[C@@H]21	–	> 100	–	–	3.11	0.756	> 100	1.58	4.41	> 100	> 100	> 100	1.42	0.253	> 100	–
CN1C(=O)C(CCO)(C(C)(C)C)c2ccccc21 (configuration not stated)	> 100	> 100	–	> 100	> 100	> 100	> 100	–	–	–	–	–	–	–	–	> 100
Cc1sc2nc3n(sc4nc5sc(C)c(C)c5c(=O)n43)c(=O)c2c1C	–	> 100	–	> 100	> 100	> 100	> 100	–	> 100	–	–	–	–	–	–	> 100
COc1ccc(/C=N/N=C(\N)NO)c(OC)c1OC	67.2	> 100	> 100	> 100	74.3	75.5	> 100	–	–	–	–	77.6	–	–	–	> 100
Cc1ccc(S(=O)(=O)CC2CCCn3c2c(C#N)c2ccccc23)cc1 (configuration not stated)	> 100	> 100	–	> 100	> 100	> 100	> 100	–	> 100	–	–	> 100	–	–	–	> 100
Cc1ccc(Cl)c2c(=O)cc(-c3ccccc3)[nH]c12	> 100	> 100	> 100	–	> 100	> 100	> 100	–	–	–	–	–	–	–	–	> 100
O=C1/C(=C/c2cccs2)N=C(c2ccccc2)N1c1nc2ccccc2s1	> 100	–	–	> 100	> 100	> 100	> 100	–	> 100	–	–	> 100	–	–	–	> 100
O=c1[nH]nc(N/N=C\c2ccc(Cl)cc2)c2ccccc12	37.8	34.6	45.4	–	57.4	53.2	41.6	–	–	–	–	51.2	–	–	–	37
Cc1c2oc3c(C)ccc(C(=O)NC4C(=O)NC(Cc5ccc(O)cc5)C(=O)N5CCCC5C(=O)N(C)CC(=O)N(C)C(C(C)C)C(=O)OC4C)c3nc-2c(C(=O)NC2C(=O)NC(Cc3ccc(O)cc3)C(=O)N3CCCC3C(=O)N(C)CC(=O)N(C)C(C(C)C)C(=O)OC2C)c(N)c1=O (configuration not stated) (I: TYP[Sar][NMeV] / II: TYP[Sar][NMeV]; ester I:1-I:C, II:1-II:C; linker I:N-II:N via Actinocin(9to1); configuration not given here)	> 100	> 100	44.3	> 100	> 100	> 100	> 100	–	–	–	–	56.1	–	–	–	> 43.6
CN1CCCC(OC(=O)c2cc3cc(CCl)ccc3oc2=O)C1 (configuration not stated)	51.1	> 100	44.3	33.1	58.1	48.7	> 100	–	49.2	–	–	–	–	–	–	33.9
C=C1CN=C(Nc2ccc(F)cc2F)S1	> 100	> 100	> 100	> 100	–	> 100	> 100	–	–	–	–	> 100	–	–	–	> 100
COc1ccc(C[C@H]2COC(=O)[C@@H]2Cc2ccccc2)cc1OC	> 100	> 100	> 100	–	> 100	> 100	> 100	–	–	–	–	> 100	–	–	–	–
OCC1c2ccccc2-n2nc(-c3ccccc3)c(O)c21 (configuration not stated)	30.6	> 100	33.3	44.8	> 100	–	> 100	–	85.1	–	–	–	–	–	–	43.9
COC(C[C@H]1CCCC[C@]1(O)/C(=C\CO[Si](C(C)C)(C(C)C)C(C)C)Sc1ccccc1)OC	> 100	> 100	86.4	34.2	62.4	85.1	> 100	–	–	–	–	> 100	–	–	–	49.9
Clc1ccc(Cc2nc3ccccc3nc2-c2cccc(Cl)c2)cc1	3.45	31.8	8.24	3.65	38.4	3.29	32.8	–	16.7	–	–	–	–	–	–	8.11
CN(c1ccc(Cl)cc1)S(=O)(=O)c1ccccc1	> 100	> 100	> 100	> 100	> 100	> 100	> 100	–	> 100	–	–	–	–	–	–	> 100

— PubChem BioAssay (NCI)
